Activity calls are given as the source filed them. No cut-off for these calls is given here.
Key:
[1] = tested on: Z-138; assay: Cytotoxicity against human Z138 cells assessed as reduction in cell viability; assay type: functional, cell-based
[2] = molecular target: Epithelial discoidin domain-containing receptor 1 (Homo sapiens) (UniProt Q08345); assay: Binding affinity to DDR1 (unknown origin) at VAL624 residue assessed as occupancy relative to control
[3] = molecular target: Epithelial discoidin domain-containing receptor 1 (Homo sapiens) (UniProt Q08345); assay: Binding affinity to DDR1 (unknown origin) at LYS655 residue assessed as occupancy relative to control

Chain of Epithelial discoidin domain-containing receptor 1 (Homo sapiens) (Q08345 whole entry, the tested form may be a part): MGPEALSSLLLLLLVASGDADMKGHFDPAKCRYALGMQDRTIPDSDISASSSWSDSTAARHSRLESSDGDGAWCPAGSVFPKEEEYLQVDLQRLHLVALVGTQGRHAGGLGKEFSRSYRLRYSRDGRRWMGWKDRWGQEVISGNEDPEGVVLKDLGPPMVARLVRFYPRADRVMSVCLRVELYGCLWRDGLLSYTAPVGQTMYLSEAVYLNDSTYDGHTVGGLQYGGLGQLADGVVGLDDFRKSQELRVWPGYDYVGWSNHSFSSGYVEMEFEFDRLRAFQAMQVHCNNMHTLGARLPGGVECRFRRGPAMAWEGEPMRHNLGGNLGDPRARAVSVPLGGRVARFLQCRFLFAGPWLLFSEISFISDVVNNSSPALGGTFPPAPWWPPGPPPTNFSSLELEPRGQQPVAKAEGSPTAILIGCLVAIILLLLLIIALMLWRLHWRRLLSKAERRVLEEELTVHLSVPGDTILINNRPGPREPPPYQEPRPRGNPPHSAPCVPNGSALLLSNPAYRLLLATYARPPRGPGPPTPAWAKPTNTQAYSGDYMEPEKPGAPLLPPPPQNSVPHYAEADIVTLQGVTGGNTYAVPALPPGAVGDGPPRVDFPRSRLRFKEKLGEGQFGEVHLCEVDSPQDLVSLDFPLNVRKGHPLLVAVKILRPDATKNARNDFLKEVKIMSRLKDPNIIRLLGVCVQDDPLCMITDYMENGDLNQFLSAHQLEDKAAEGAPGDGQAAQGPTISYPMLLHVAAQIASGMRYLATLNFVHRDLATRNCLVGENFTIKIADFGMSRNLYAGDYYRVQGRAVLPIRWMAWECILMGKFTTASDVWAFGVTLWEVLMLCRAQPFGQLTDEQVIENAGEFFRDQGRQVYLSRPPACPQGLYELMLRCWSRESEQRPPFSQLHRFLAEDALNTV

| SMILES | Activity [1] | Occ [2] [%] | Occ [3] [%] |
| --- | --- | --- | --- |
| Cc1cc(Nc2cc(N3CCN(C)CC3)nc(Sc3ccc(NC(=O)C4CC4)cc3)n2)n[nH]1 | Active |  |  |
| CN1CCN(c2ccc(C(=O)Nc3n[nH]c4ccc(Cc5cc(F)cc(F)c5)cc34)c(NC3CCOCC3)c2)CC1 | Active | 82.8 | 69.9 |
